From patent US20260101892A1, “METHOD TO INHIBIT PROLIFERATION OF A PHYTOPATHOGEN ON PLANTS AND COMPOSITIONS USED FOR THIS PURPOSE” (CYSBIO APS, priority 2022, published 2026)
Where two headings read alike, the source gives them in different places. Marks after values point to notes of the source that are not given here.

Tests used:
E. coli [1] = settings: cited from earlier work; for Planktonic growth A600/min (×10^−3): LB medium, 30° C., 24 hours; for Planktonic growth Reduction (%): (compound − control) × 100 / control, negative = reduction; for biocidal effect: at the concentrations tested by Catto et al. (0.183-1830 μM)
E. coli [2] = settings: cited from earlier work; for Cell adhesion Reduction (%): (compound − control) × 100 / control, negative = reduction; for anti-biofilm activity (cell adhesion): at the concentrations tested by Catto et al. (0.183-1830 μM); for concentrations at which anti-biofilm efficacy is shown: Catto et al., table 1
Alternaria alternata = assay: Post-harvest preservation of capsicums; format: in vivo; settings: capsicums sprayed twice, 10° C., followed 25 days, triplicate
Procedure: To investigate if zosteric acid and/or coumaric acid can protect fruit and vegetables against post-harvest infection with different fungi, zosteric and coumaric acids fungicidal effect was tested in capsicums and lemons infected with Alternaria alternata and Penicillium digitatum, respectively. The tests were performed by acquiring the relevant fruit and vegetables from the local supermarket. Both fruit and vegetables were bought as organic produce to ensure a minimum of pesticides had already been applied. […] Each application treatment was performed in triplicate on three separate pieces of produce. After treatment, the produce was allowed to dry in a sterile laminar flow cabinet followed by a second round of application and drying. The produce was then inoculated with the relevant fungal spores using a grafting stick. […] The inoculated produce was subsequently placed in […] plastic bags to prevent contamination with other organisms and to prevent the produce from drying out due to air circulation in the incubator. The wrapped capsicums and lemons were placed at 10° C. and the fungal growth followed by measuring the diameter of the growth from the point of inoculation for 25 days.

[3] = system: European grapes (Vitis vinifera); assay: Phytotoxicity evaluation in the grapevine downy mildew trial; settings: 5% treatment, Example 9 trial

Structure (SMILES) | Planktonic growth A600/min (×10^−3) (E. coli [1]; 0.183 μM) | Planktonic growth Reduction (%) (E. coli [1]; 0.183 μM) | Planktonic growth A600/min (×10^−3) (E. coli [1]; 1.83 μM) | Planktonic growth Reduction (%) (E. coli [1]; 1.83 μM) | Planktonic growth A600/min (×10^−3) (E. coli [1]; 18.3 μM) | Planktonic growth Reduction (%) (E. coli [1]; 18.3 μM) | Planktonic growth A600/min (×10^−3) (E. coli [1]; 183 μM) | Planktonic growth Reduction (%) (E. coli [1]; 183 μM) | Planktonic growth A600/min (×10^−3) (E. coli [1]; 1830 μM) | Planktonic growth Reduction (%) (E. coli [1]; 1830 μM) | Cell adhesion Reduction (%) (E. coli [2]; 0.183 μM) | Cell adhesion N. adhered cells (×10^7) (E. coli [2]; 0.183 μM) | Cell adhesion Reduction (%) (E. coli [2]; 1.83 μM) | Cell adhesion N. adhered cells (×10^7) (E. coli [2]; 1.83 μM) | Cell adhesion Reduction (%) (E. coli [2]; 18.3 μM) | Cell adhesion N. adhered cells (×10^7) (E. coli [2]; 18.3 μM) | Cell adhesion Reduction (%) (E. coli [2]; 183 μM) | Cell adhesion N. adhered cells (×10^7) (E. coli [2]; 183 μM) | Cell adhesion Reduction (%) (E. coli [2]; 1830 μM) | Cell adhesion N. adhered cells (×10^7) (E. coli [2]; 1830 μM) | also measured
O=C(O)/C=C\c1ccc(OS(=O)(=O)O)cc1 [Cis zosteric acid, cis-zosteric acid] | 1.31 ± 0.13^a A600/min (×10^−3) | 2.28% | 1.31 ± 0.01^a A600/min (×10^−3) | 1.66% | 1.31 ± 0.03^a A600/min (×10^−3) | 2.24% | 1.24 ± 0.03^a A600/min (×10^−3) | −3.39% | 1.22 ± 0.03^a A600/min (×10^−3) | −4.98% | 98.02% | 3.79 ± 0.61^c ×10^7 | 92.49% | 3.69 ± 0.41^c ×10^7 | 84.50% | 3.54 ± 0.20^c ×10^7 | 9.90% | 2.11 ± 0.14^bd ×10^7 | 124.16% | 4.30 ± 1.01^c ×10^7 | biocidal effect (E. coli [1]): no biocidal nor anti-biofilm activity; anti-biofilm activity (cell adhesion) (E. coli [2]): no biocidal nor anti-biofilm activity; anti-biofilm activity (cell adhesion) (E. coli [2]; listed as cis-isomer of zosteric acid): no activity
O=C(O)/C=C\c1ccccc1 [Cis-cinnamic acid, cis-cinnamic acid] | 1.32 ± 0.04^ab A600/min (×10^−3) | 2.71% | 1.28 ± 0.07^ab A600/min (×10^−3) | −0.56% | 1.30 ± 0.03^ab A600/min (×10^−3) | 1.27% | 1.24 ± 0.05^a A600/min (×10^−3) | −3.17% | 0.88 ± 0.02^c A600/min (×10^−3) | −31.64% | 28.52% | 2.46 ± 0.17^b ×10^7 | 23.00% | 2.36 ± 0.26^b ×10^7 | −29.61% | 1.35 ± 0.28^b ×10^7 | 164.82% | 5.08 ± 0.53^c ×10^7 | 183.29% | 5.43 ± 0.76^c ×10^7 | anti-biofilm activity (cell adhesion) (E. coli [2]): promotes biofilm formation at all concentrations tested
O=C(O)/C=C\c1ccc(O)cc1 [Cis-coumaric acid, cis-coumaric acid] | 1.29 ± 0.07^a A600/min (×10^−3) | 0.30% | 1.27 ± 0.05^a A600/min (×10^−3) | −0.88% | 1.27 ± 0.04^a A600/min (×10^−3) | −1.26% | 1.28 ± 0.06^a A600/min (×10^−3) | −0.16% | 1.25 ± 0.02^a A600/min (×10^−3) | −2.25% | −27.34% | 1.39 ± 0.15^abc ×10^7 | −14.39% | 1.64 ± 0.11^bc ×10^7 | −4.30% | 1.83 ± 0.14^bc ×10^7 | −15.26% | 1.62 ± 0.19^bc ×10^7 | 184.36% | 5.45 ± 1.00^e ×10^7 | biocidal effect (E. coli [1]): no biocidal activity; anti-biofilm activity (cell adhesion) (E. coli [2]): strongly reduced anti-biofilm activity
O=C(O)/C=C/c1ccc(OS(=O)(=O)O)cc1 [Trans zosteric acid, trans-zosteric acid] | 1.32 ± 0.06^a A600/min (×10^−3) | 2.86% | 1.31 ± 0.04^a A600/min (×10^−3) | 1.76% | 1.29 ± 0.04^a A600/min (×10^−3) | 0.11% | 1.30 ± 0.04^a A600/min (×10^−3) | 1.07% | 1.30 ± 0.04^a A600/min (×10^−3) | 1.21% | 44.59% | 2.77 ± 0.17^d ×10^7 | −19.76% | 1.54 ± 0.29^c ×10^7 | −19.34% | 1.55 ± 0.19^c ×10^7 | −27.67% | 1.39 ± 0.13^c ×10^7 | −70.56% | 0.56 ± 0.12^a ×10^7 | biocidal effect (E. coli [1]): no biocidal effect; concentrations at which anti-biofilm efficacy is shown (E. coli [2]): > 1.83 µM; anti-biofilm activity (cell adhesion) (E. coli [2]; listed as trans-isomer of zosteric acid): highly effective
O=C(O)/C=C/c1ccccc1 [Trans-cinnamic acid, trans-cinnamic acid] | 1.24 ± 0.04^abcd A600/min (×10^−3) | −3.32% | 1.22 ± 0.01^abcdf A600/min (×10^−3) | −4.74% | 1.19 ± 0.04^bcdef A600/min (×10^−3) | −7.58% | 1.14 ± 0.05^def A600/min (×10^−3) | −11.37% | 0.83 ± 0.02^h A600/min (×10^−3) | −35.10% | −34.95% | 1.25 ± 0.43^cdef ×10^7 | −38.77% | 1.17 ± 0.17^cdf ×10^7 | −7.37% | 1.78 ± 0.10^bcef ×10^7 | −25.03% | 1.44 ± 0.15^bcdef ×10^7 | −31.11% | 1.32 ± 0.28^cdef ×10^7 | concentrations at which anti-biofilm efficacy is shown (E. coli [2]): > 0.183 µM
O=C(O)/C=C/c1ccc(O)cc1 [Trans-coumaric acid, trans-coumaric acid] | 1.31 ± 0.03ab A600/min (×10^−3) | 2.06% | 1.26 ± 0.04abc A600/min (×10^−3) | −1.72% | 1.23 ± 0.02abc A600/min (×10^−3) | −3.99% | 1.23 ± 0.06abc A600/min (×10^−3) | −3.87% | 0.97 ± 0.04e A600/min (×10^−3) | −24.17% | 19.37% | 2.29 ± 0.16b ×10^7 | −46.05% | 1.03 ± 0.14ce ×10^7 | −25.80% | 1.42 ± 0.24de ×10^7 | −22.36% | 1.49 ± 0.14de ×10^7 | −36.38% | 1.22 ± 0.27cde ×10^7 | biocidal effect (E. coli [1]): displays both biocidal and antibiofilm effect; anti-biofilm activity (cell adhesion) (E. coli [2]): displays both biocidal and antibiofilm effect
O=C(O)/C=C/c1ccc(O)cc1 [coumaric acid] |  |  |  |  |  |  |  |  |  |  |  |  |  |  |  |  |  |  |  |  | time after inoculation until A. alternata growth was displayed (Alternaria alternata): 25 days; phytotoxicity [3]: 23.5%
